Laboratory results taken from PMC7673765 (Science Advances, 2020).
Entries after “also recorded” stand apart in the source; their conditions may differ.

What was measured:
[1] = target: human HSP90α (Homo sapiens, UniProt P07900); assay: Isothermal titration calorimetry; format: binding; settings: 0.2 mM C28 injected into 20 μM human HSP90α
[2] = Pharmacokinetics in mice; format: in vivo; settings: male, BALB/c (nude), mouse, plasma
[3] = system: NCI-60 cell lines; assay: NCI-60 five-dose evaluation; format: cell-based, human; settings: five doses
[4] = system: MMTV-Neu mammary tumors; assay: MMTV-Neu transgenic mammary tumor model; format: in vivo, mice
[5] = system: ERα; assay: Western blots of ERα in BC cell lines; format: cell-based, human
[6] = Histopathologic analysis of tumor sections and organs, MMTV-Neu mice; format: in vivo; settings: C28 10 mg/kg oral daily
[7] = system: MDA-MB-231 xenografts; assay: MDA-MB-231 xenograft mouse model; format: in vivo, NSG mice; settings: C28 10 mg/kg oral daily; after 23 days
[8] = system: BC cell lines (MCF7, T47D, MDA-MB-231); assay: Cell death and apoptosis; format: cell-based, human; settings: increasing concentrations of C28, 72 hours
[9] = system: LMTK3; assay: Western blots of LMTK3 in BC cell lines; format: cell-based, human; settings: for endogenous LMTK3 protein levels (Western blot): increasing concentrations of HSP90 inhibitor, 72 hours
[10] = system: CDC37; assay: Western blots of chaperones in BC cell lines; format: cell-based, human; settings: increasing concentrations of C28, 48 hours
[11] = target: HIPK2 (Homo sapiens, UniProt Q9H2X6); assay: Western blots of kinases in BC cell lines; settings: 10 μM C28, different time points
[12] = system: NCI-60 panel of tumor cell lines; assay: NCI-60 one-dose screening; format: cell-based; settings: Homo sapiens, 24 h, read-out: inhibition of all cancer cell lines
[13] = system: BC cells; assay: Cell viability assay; format: cell-based; settings: Homo sapiens, 72 h, read-out: IC50 values, growth of BC cells
[14] = system: MCF12A; assay: Cell death and apoptosis; format: cell-based, human; settings: even at high concentrations of C28 and longer time points
[15] = target: T1, IRAK4 (Homo sapiens, UniProt Q9NWZ3); assay: Western blots of kinases in BC cell lines; settings: 10 μM C28, different time points
T1 sequence (Q9NWZ3 1-460): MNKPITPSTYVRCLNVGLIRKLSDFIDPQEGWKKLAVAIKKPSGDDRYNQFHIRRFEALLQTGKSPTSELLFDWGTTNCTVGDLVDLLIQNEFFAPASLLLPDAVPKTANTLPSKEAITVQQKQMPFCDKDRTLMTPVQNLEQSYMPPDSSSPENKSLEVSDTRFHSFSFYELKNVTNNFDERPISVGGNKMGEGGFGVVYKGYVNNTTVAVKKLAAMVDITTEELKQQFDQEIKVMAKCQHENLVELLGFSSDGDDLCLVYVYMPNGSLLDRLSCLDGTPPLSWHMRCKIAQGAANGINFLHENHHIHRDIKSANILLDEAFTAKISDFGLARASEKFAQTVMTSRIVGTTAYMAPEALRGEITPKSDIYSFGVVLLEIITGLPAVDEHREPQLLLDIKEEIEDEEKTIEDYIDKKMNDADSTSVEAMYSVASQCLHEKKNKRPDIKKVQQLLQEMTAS

[16] = system: HSP90; assay: Western blots of chaperones in BC cell lines; format: cell-based, human; settings: increasing concentrations of C28, 48 hours
[17] = system: HSP70; assay: Western blots of HSP70 in BC cell lines; format: cell-based, human; settings: increasing concentrations of HSP90 inhibitor, 72 hours
[18] = target: T2, human CDC37 (cell division cycle 37), recombinant (human, UniProt Q16543 1-378); assay: MST
T2 sequence (looked up): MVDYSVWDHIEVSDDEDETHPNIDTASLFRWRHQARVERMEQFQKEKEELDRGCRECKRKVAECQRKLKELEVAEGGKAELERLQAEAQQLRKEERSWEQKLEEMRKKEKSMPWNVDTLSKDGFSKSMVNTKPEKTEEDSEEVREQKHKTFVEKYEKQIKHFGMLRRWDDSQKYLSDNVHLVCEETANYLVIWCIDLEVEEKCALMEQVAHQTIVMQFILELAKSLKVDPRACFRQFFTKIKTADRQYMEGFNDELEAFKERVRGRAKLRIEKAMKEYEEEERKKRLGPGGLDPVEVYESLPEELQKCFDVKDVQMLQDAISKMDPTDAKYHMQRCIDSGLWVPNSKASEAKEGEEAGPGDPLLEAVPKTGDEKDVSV

Sequence of HIPK2 (Q9H2X6 whole entry): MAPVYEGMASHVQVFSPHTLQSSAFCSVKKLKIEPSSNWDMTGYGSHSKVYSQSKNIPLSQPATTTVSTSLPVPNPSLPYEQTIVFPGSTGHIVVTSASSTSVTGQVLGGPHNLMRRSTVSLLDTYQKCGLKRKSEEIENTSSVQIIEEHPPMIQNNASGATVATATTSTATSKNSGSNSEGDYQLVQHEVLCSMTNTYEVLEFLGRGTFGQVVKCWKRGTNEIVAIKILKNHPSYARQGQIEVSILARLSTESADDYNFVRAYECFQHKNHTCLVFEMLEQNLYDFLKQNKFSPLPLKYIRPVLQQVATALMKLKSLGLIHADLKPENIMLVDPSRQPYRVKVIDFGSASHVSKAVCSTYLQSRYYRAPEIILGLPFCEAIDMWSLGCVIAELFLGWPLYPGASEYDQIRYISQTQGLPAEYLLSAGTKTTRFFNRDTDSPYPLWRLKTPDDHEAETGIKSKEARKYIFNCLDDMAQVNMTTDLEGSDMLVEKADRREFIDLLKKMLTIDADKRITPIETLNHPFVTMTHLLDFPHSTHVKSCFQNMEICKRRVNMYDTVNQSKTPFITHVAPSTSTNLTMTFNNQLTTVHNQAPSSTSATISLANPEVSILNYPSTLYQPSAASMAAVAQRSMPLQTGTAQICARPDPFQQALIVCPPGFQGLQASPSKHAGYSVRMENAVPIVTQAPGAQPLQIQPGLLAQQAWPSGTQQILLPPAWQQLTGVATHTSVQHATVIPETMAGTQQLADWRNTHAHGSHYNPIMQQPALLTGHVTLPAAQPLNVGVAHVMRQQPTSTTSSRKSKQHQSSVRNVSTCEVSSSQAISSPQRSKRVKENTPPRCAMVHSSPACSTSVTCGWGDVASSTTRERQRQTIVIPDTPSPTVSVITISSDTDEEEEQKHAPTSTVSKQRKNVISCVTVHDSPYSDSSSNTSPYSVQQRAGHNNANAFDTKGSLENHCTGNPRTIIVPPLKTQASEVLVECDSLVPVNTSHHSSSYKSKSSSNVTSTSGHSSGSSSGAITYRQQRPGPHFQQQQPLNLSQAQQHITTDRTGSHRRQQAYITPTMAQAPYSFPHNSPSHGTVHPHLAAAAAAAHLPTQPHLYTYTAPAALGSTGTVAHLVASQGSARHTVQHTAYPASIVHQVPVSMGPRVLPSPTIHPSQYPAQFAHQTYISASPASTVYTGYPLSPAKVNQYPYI

With FC(F)(F)Oc1cccc(-c2cnc3ccc(-c4ccncc4)nn23)c1 [C28, 6-(pyridin-4-yl)-3-(3-(trifluoromethoxy)phenyl)imidazo[1,2-b]pyridazine] the “binding to HSP90α (ITC)” value [1] was “no detectible heat of interaction; also recorded: does not bind to HSP90”, the half-life ([2]; ip, 10 mg/kg, T1/2, plasma) was roughly 59 min and the Cmax ([2]; iv, 5 mg/kg) was 4.3 µM. It also gave a half-life ([2]; iv, 5 mg/kg, half-life (T1/2)) of roughly 10 min, a Cmax ([2]; po, 10 mg/kg) of 0.632 µg/mL and a half-life ([2]; po, 10 mg/kg, T1/2, plasma) of roughly 62 min. For the same molecule, the “sensitivity of renal cancer cells” value [3] was “more sensitive”, the “Ki-67 IHC analysis of tumor sections” value ([4]; C28 10 mg/kg) was “decreased proliferation” and the “LMTK3 expression in tumors (IHC staining)” value ([4]; C28 10 mg/kg) was “reduction of LMTK3 expression”. The “tumor growth compared to the vehicle-treated group” value ([4]; C28 10 mg/kg oral daily) was “nearly completely abrogated tumor growth”, the “protein levels of ERα (Western blot)” value ([5]; BC cell lines treated with C28) was “decreased protein levels of ERα” and the “toxicity (histopathology of tumor, lung, stomach, heart, kidney, liver, spleen)” value [6] was “lack of toxicity”. The “tumor growth compared to the control group” value [7] was “significantly impeded growth”, the “apoptosis of BC cell lines” value [8] was “triggered apoptosis” and the “LMTK3 protein levels (Western blot)” value ([9]; increasing concentrations of C28, different time points) was “time- and dose-dependent degradation of LMTK3”. For the same molecule, the “protein levels of CDC37 (Western blot)” value [10] was “no effect”, the “HIPK2 protein levels (Western blot)” value [11] was “degradation” and the inhibition at 10 µM [12] was greater than 50%. The IC50 [13] was 6.5 to 8.64 µM, the “cell death of nontransformed MCF12A” value [14] was “low percentage of cell death” and the “IRAK4 protein levels (Western blot)” value [15] was “degradation”. The “protein levels of HSP90 (Western blot)” value [16] was “no effect”.

For CCNC(=O)c1noc(-c2cc(C(C)C)c(O)cc2O)c1-c1ccc(CN2CCOCC2)cc1 [NVP-AUY922], the “ERα levels (Western blot)” value ([5]; BC cell lines, HSP90 inhibitor, 72 hours) was “down-regulation of ERα”, the “HSP70 levels (Western blot)” value [17] was “induction of HSP70” and the “endogenous LMTK3 protein levels (Western blot)” value [9] was “reduction of endogenous LMTK3 protein levels”.

With COC1=C2C[C@@H](C)C[C@H](OC)[C@H](O)[C@@H](C)/C=C(\C)[C@H](OC(N)=O)[C@@H](OC)/C=C\C=C(/C)C(=O)NC(=CC1=O)C2=O [geldanamycin] the “HSP70 levels (Western blot)” value [17] was “induction of HSP70” and the “endogenous LMTK3 protein levels (Western blot)” value [9] was “reduction of endogenous LMTK3 protein levels”.

B1: LMTK3 catalytic domain (LMTK3cat; amino acids 134 to 444) (domain or fragment, UniProt Q96Q04 105-415, looked up)
chain: LAEVSLPMPAPQPSHSDMTTPLGLSRQHLSYLQEIGSGWFGKVILGEIFSDYTPAQVVVKELRASAGPLEQRKFISEAQPYRSLQHPNVLQCLGLCVETLPFLLIMEFCQLGDLKRYLRAQRPPEGLSPELPPRDLRTLQRMGLEIARGLAHLHSHNYVHSDLALRNCLLTSDLTVRIGDYGLAHSNYKEDYYLTPERLWIPLRWAAPELLGELHGTFMVVDQSRESNIWSLGVTLWELFEFGAQPYRHLSDEEVLAFVVRQQHVKLARPRLKLPYADYWYDILQSCWRPPAQRPSASDLQLQLTYLLSER
modifications: covalently labeled with a red NHS-647 fluorophore (NT647) for MST
In the case of B1, the Kd [18] is reported as 2.21 ± 1.17 µM.
